Experimental data taken from publication PMC12518693, “Potent Fluorescent Probe for Target‐Engagement Studies of Allosteric Pyruvate Kinase Modulators” (Angewandte Chemie (International Ed. in English), 2025).
Marks after values point to notes of the source that are not given here.

Experiments:
PKL [1] = target: T1, PKL (Homo sapiens, UniProt P30613); experiment: HepG2 PKM2 KO cell lysate PKL activity assay; settings: HepG2 PKM2 KO cells, 48 h, mean ± SE n=3
Procedure: These predominantly express PKL.
HepG2 PKM2 KO cells (Synthego) were plated in 6 well plates at cell densities of 2 x 10^5 cells/well and incubated for 24 h at 37 °C and 5% CO2. Compounds were added to the cells in different concentrations (0.1, 1, 10 µM) and the cells were further incubated for 48 h. The control cells received DMSO as vehicle.
Cells were washed with PBS, lysed on ice with 200 µL/well PK assay buffer. […] Pyruvate kinase (PK) activity of the cell lysates (10 µg total protein) was analyzed by using the PK assay kit from abcam (ab83432) according to manufacturer´s instructions. The PKL activity in the cell lysates treated with the compounds was expressed as a percentage of the PK activity in the vehicle.

PKL [2] = target: T1, PKL; experiment: Surface plasmon resonance, PKL; settings: for koff: read-out: k off SPR (PKL); for kon: read-out: k on SPR (PKL)
Procedure: The surface was washed with 10 mM NaOH, 1M NaCl followed by immobilization of protein before subsequent deactivation by 1 M ethanolamine. Immobilization levels were typically 12000-16000 RU. The reference spot was treated as described, omitting the injection of PKL. Compound concentration series was injected over the immobilized protein in increasing concentrations using multi cycle (MCK) or single cycle kinetics (SCK) in running buffer (10 mM HEPES, 150 mM NaCl, 0.05% Tween20, 0.3% DMSO, pH 7.4). A 1:1 Langmuir interaction model is fitted to the experimental traces, enabling determination of kon, koff and Kd.

PKM2 [3] = target: T2, PKM2 (Homo sapiens, UniProt P14618); experiment: Recombinant PKM2 activity assay (Kinase-Glo MAX); type: biochemical; parameters: made in house; settings: for PKM2 E max: recombinant PKM2; for EC50: recombinant PKM2 10 nM, 15 min pre-incubation, PEP 0.1 mM, ADP 0.2 mM
T2 sequence (P14618 whole entry): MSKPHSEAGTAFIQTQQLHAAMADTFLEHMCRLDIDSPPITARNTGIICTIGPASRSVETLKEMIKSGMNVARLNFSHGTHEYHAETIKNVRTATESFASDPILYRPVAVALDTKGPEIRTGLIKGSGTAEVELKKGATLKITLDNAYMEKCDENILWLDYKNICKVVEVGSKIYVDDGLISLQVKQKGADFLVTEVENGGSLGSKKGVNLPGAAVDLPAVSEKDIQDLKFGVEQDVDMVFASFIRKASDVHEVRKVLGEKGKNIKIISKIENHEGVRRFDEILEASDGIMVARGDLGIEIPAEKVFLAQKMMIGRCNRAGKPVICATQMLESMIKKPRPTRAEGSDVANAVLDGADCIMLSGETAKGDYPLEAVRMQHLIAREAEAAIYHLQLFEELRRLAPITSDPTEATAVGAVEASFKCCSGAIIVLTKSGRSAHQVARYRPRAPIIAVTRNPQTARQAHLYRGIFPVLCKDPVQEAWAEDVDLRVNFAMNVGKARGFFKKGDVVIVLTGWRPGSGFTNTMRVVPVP
Procedure: As these compounds were binding to a known allosteric site on PK, the effects of ligands I–IV on the enzymatic activities of PKL and PKM2 were determined (Figure S2). The two isozymes were incubated with increasing concentrations of compounds before the addition of substrates PEP and adenosine diphosphate (ADP), and the reactions were monitored using a Kinase‐Glo MAX assay.
(§1) Figure S2. Effects of ligands I-IV on recombinant PK activities. PKL or PKM2 (10 nM) were pre-incubated with the compounds (0-100 µM) for 15 min following the addition of PEP (0.1 mM) and ADP (0.2 mM). The reactions were terminated by the addition of Kinase Glo-MAX reagent after 10 min, and the luminescence from each reaction was quantified using a plate reader. The activity values are expressed as a percentage of PK activity of the DMSO control. The potencies were calculated by best fit of the Hill equation to the luminescence data.^[2] (A) PKL titrations. (B) PKM2 titrations. Error bars represent the ±SE of replicates (n = 3).

PKL [4] = target: T1, PKL; experiment: Recombinant PKL activity assay (Kinase-Glo MAX); type: biochemical; parameters: co-crystallisation of full-length PKL (including the B-domain); 8xHis (TEV-cleavable) (N, cleaved yes); made in house; host or cells: E. coli T7 Express (NEB), pExp-NHis plasmid; settings: for EC50: recombinant PKL 10 nM, 15 min pre-incubation, PEP 0.1 mM, ADP 0.2 mM; for PKL E max: recombinant PKL, above 100% activation, below 100% inhibition
Procedure: The two isozymes were incubated with increasing concentrations of compounds before the addition of substrates PEP and adenosine diphosphate (ADP), and the reactions were monitored using a Kinase‐Glo MAX assay.
as §1, with “Effects of ligands I-IV on recombinant PK activities. PKL or PKM2 (10 nM) were pre-incubated with the compounds (0-100 µM) for 15 min following the addition of PEP (0.1 mM) and ADP (0.2 mM).” left out
The reaction mixture contained 0.2 mM ADP, 0.1 mM PEP, 5 nM PKL, 1% DMSO, and test compounds at concentrations ranging from 0 to 1 mM across 12 titration points. Prior to substrate addition, PKL and test compounds were pre-incubated for 15 minutes.
After the reaction, 5 µL of Kinase-Glo Max reagent was added to each well. […] For each data set, luminescence from the DMSO control was set as 100% activity, and luminescence from the protein blank (no PKL) as 0% activity. Percentage activity (E%) was calculated using the equation: […]
Titration data was fitted to the Hill equation in Origin to determine EC₅₀ values.

PKM2 [5] = target: T2, PKM2; experiment: Surface plasmon resonance, PKM2; settings: for K D (SPR, PKM2): 20 °C
Solubility = type: physicochemical
PKLwt = PKLwt (Homo sapiens, UniProt P30613); experiment: Fluorescence indicator displacement (FID) competition assay
Chain of PKLwt (P30613 1-543 isoform P30613-2): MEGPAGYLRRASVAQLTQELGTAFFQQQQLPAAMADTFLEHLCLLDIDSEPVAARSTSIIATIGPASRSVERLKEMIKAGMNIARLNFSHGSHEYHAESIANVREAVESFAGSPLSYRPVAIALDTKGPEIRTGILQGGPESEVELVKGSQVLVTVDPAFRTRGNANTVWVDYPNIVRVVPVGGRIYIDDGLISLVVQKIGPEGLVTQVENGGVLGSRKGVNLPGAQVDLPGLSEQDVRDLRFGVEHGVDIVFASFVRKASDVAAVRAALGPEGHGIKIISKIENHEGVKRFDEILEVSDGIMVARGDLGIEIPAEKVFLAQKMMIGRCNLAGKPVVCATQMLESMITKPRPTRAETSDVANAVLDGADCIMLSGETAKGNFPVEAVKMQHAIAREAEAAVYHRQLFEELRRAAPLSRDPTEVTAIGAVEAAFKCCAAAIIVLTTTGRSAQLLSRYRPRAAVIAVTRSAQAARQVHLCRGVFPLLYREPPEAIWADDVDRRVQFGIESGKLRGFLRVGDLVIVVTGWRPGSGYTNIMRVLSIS
Procedure: Additionally, we performed fluorescence competition assays with these competitors against IV, using recombinant PKLwt (Figure 6b). […] A combined 2x PKL-tracer IV solution was prepared in Tris-HCl buffer containing 1% DMSO, with final concentrations of 0.2 µM PKL and 0.1 µM tracer IV.

PKLNluc = PKLNluc (Homo sapiens, UniProt P30613); experiment: Live-cell NanoBRET assay in HEK293 cells; type: cell-based; parameters: host or cells: HEK293, transient transfection; settings: 20 nM tracer IV
Chain of PKLNluc (P30613 1-543 isoform P30613-2): as above
Procedure: To investigate the intracellular interaction of tracer IV with PKLNluc, we prepared a mammalian expression construct, fusing Nluc to the N‐terminus of PKL. […] As a negative control for NanoBRET experiments, a construct expressing Nluc alone (without PKL) was also prepared.
Additionally, cell viability assays were conducted on cells transfected with either PKLNluc or Nluc plasmids and incubated with tracer IV (Figure S4b,c).
HEK293 cells were passed one day before transfection. The concentration of cells was adjusted to 2x10^5 cells/ml in Opti-MEM™ without phenol red (Invitrogen) supplemented with 1% FBS (Hyclone). Cells (4x10^6) were reversed transfected with 1 µg of PKLNluc plasmid or 1 µg Nluc plasmid and 9 µg of carrier DNA (Promega) using 30 µL of Fugene HD transfection reagent (Promega). […] Work solutions (100x) of tracer IV were prepared from DMSO stocks and further diluted to 20x concentrations with Tracer buffer (Promega). Twenty-five hours after transfection, the cells were treated with 5 µL/well of each of 20x concentrations of the tracer (final concentrations in the assay were in the range 0.001-1 µM, depending on the experiment). Thereafter, 10 µL of 10x solutions of competitors (diluted in Opti-MEM™ medium from stocks of 100x prepared in DMSO) were added to some sets of cells, while the other set received only Opti-MEM™ containing 1% DMSO. The cells were incubated for 2 h at 37°C (5% CO2). […] For each sample well, BRET ratios were calculated using the following formula:
BRET ratio mBU= AcceptorSDonorS-AcceptorNTDonorNT
Where AcceptorS is the luminescence intensity of the sample well at 550 nm, DonorS is the luminescence of the sample well at 450 nm, and AcceptorNT and DonorNT are the luminescence of the no-tracer control at 550 nm and 450 nm respectively.

[6] = K D SPR (PKL), 20 °C, mean ± SE n=3

T1 sequence (P30613 1-543 isoform P30613-2): as above

| PKL activities (% of vehicle) 0.1 µM (PKL [1]) | PKL activities (% of vehicle) 1 µM (PKL [1]) | PKL activities (% of vehicle) 10 µM (PKL [1]) | Kd (PKL [2]; [6]) [nM] | koff (PKL [2]) [s⁻¹] | kon (PKL [2]) [M⁻¹ s⁻¹] | PKM2 E max (PKM2 [3]) | EC50 (PKM2 [3]) [nM] | EC50 (PKL [4]) [nM] | PKL E max (PKL [4]) | Kd (PKM2 [5]) [µM] | solubility (Solubility) | K D (SPR, PKM2) (PKM2 [5]) | Structure (SMILES) | further results |
| --- | --- | --- | --- | --- | --- | --- | --- | --- | --- | --- | --- | --- | --- | --- |
| 115 ± 2 % of vehicle | 189 ± 3 % of vehicle | 330 ± 3 % of vehicle | 133 ± 8 | 0.00533 | 41200 | 596 % of vehicle | 25 | 15 | 162 % vehicle | 0.033 ± 0.001 |  |  | O=c1c2ccc(S(=O)(=O)c3ccccc3)cc2cnn1Cc1ccccc1 [Compound I, 2-Benzyl-6-(phenylsulfonyl)phthalazin-1(2H)-one, reference compound] | koff (PKM2 [5]; read-out: k off SPR (PKM2)): < 0.00055 s⁻¹; kon (PKM2 [5]; read-out: k on SPR (PKM2)): 4500 M⁻¹ s⁻¹ |
| 112 ± 1 % of vehicle | 126 ± 1 % of vehicle | 133 ± 6 % of vehicle | 36200 ± 289 | 0.00833 | 167 | 572 % of vehicle |  | 700 | 120 % vehicle | > 100 | poor | no detectable binding | CN(C)c1ccc(S(=O)(=O)c2ccc3c(=O)n(Cc4ccccc4)ncc3c2)c2nonc12 [Compound II, 2-Benzyl-6-((7-(dimethylamino)benzo[c][1,2,5]oxadiazol-4-yl)sulfonyl)phthalazin-1(2H)-one] | weaker PKL affinity relative to compound I (PKL [2]; SPR K D ratio): 250 fold |
|  |  |  | > 100000 |  |  | 323 % of vehicle | > 10000 | 86000 | 50 ^a) % vehicle | > 100 | poor | no detectable binding | CN(C)c1ccc(S(=O)(=O)c2ccc3c(=O)n(CC(C)(C)C)ncc3c2)c2nonc12 [Compound III, 6-((7-(Dimethylamino)benzo[c][1,2,5]oxadiazol-4-yl)sulfonyl)-2-neopentylphthalazin-1(2H)-one] | K D SPR (PKL) (PKL [2]; 20 °C, mean ± SE n=3): no binding; effect on PKL at higher concentrations (PKL [4]; >50 µM): weak inhibition |
|  |  |  |  |  |  |  |  |  |  |  |  |  | Nc1cccc(S(=O)(=O)N2CCCN(S(=O)(=O)c3ccc4c(c3)OCCO4)CC2)c1 [DASA-58, reference compound] | Kd (PKL [2]; K D (SPR, PKL), 20 °C, recombinant PKL): 170 nM; EC50 (PKLwt): 394 nM; Kd (PKLwt): 179 nM; EC50 (PKLNluc; 2 h 37 °C, live HEK293, Figure 6a, read-out: EC50 displacement of tracer IV): 512 nM; Kd (PKLNluc; Figure 6, read-out: K D (cell), Cheng–Prusoff corrected): 245 nM |
